Experimental data reported in the NIST ThermoML archive (doi:10.1016/j.tca.2014.08.003).

Details: Crystal, Calculated from knudsen effusion weight loss

[Cu][Br] [copper(1+) bromide]
Details | vapor or sublimation pressure [kPa]
528.8 K | 1.17e-05
530.1 K | 9.37e-06
532 K | 1.25e-05
551.4 K | 2.45e-05
551.6 K | 3.17e-05
553.5 K | 4.55e-05
570.8 K | 9.35e-05
572.6 K | 0.000104
573.5 K | 0.000113
592.1 K | 0.000235
593.8 K | 0.000273
594.6 K | 0.000301
611.9 K | 0.000512
614.9 K | 0.000595
618.1 K | 0.000705
633 K | 0.00115
634.1 K | 0.00121
635 K | 0.00109
655.2 K | 0.00229
656.8 K | 0.00229
658.2 K | 0.00269

[Br-].[Br-].[Zn+2] [zinc bromide]
Details | vapor or sublimation pressure [kPa]
452.5 K | 2.26e-05
452.8 K | 2.04e-05
453.1 K | 2.07e-05
453.6 K | 1.28e-05
469.4 K | 4.74e-05
472.1 K | 9.63e-05
472.7 K | 8.63e-05
473.8 K | 7.35e-05
492.8 K | 0.000262
493.1 K | 0.000181
493.2 K | 0.000217
493.9 K | 0.000252
511.2 K | 0.000691
511.3 K | 0.000577
513 K | 0.000684
513.1 K | 0.000719
528.9 K | 0.00158
530.2 K | 0.00192
532.9 K | 0.00201
533.9 K | 0.0019
551.6 K | 0.0051
552 K | 0.00505
552.7 K | 0.00453
552.8 K | 0.00521
568 K | 0.00978
570.3 K | 0.0106
572.3 K | 0.00997
574 K | 0.0126
